# Like-named read-outs stand apart in the source and are kept apart here.
# Legend:
# [1] = system: platelet aggregation induced by ADP; experiment: ADP (adenosine diphosphate) induced-platelet aggregation inhibiting activity (in vitro, platelet-rich plasma); format: cell-based, human (healthy volunteer); details: ADP final concentration 10 μM, 37° C., pre-incubation 5 minutes, prime (') = converted into carboxylic acid compound before test, read-out: in vitro Platelet aggregation inhibition activity IC50
# Protocol: ADP (adenosine diphosphate) induced-platelet aggregation inhibiting activity
# (1) Preparation Method of Platelet-rich Plasma
# By using 0.1 volume of 3.8% sodium citrate as an anticoagulant, citrate-added blood collected from an elbow vein of a healthy volunteer was centrifuged at 500×g (=1600 rpm) for 3 minutes and the supernatant was fractionated as platelet-rich plasma (PRP). The under layer was further centrifuged at 1800×g (3200 rpm) for 15 minutes and the supernatant was fractionated as platelet-poor blood plasma (PPP) and used for ADP aggregation (coagulation) measurement.
# (2) Measurement Method of ADP-induced Platelet Aggregation
# PRP obtained as mentioned above was diluted by the platelet-poor plasma (PPP) to adjust the number of platelet to 30 to 40×10^4 /μL, and platelet aggregation induced by ADP was measured by using an aggrigometer (available from NBS Co., Hematracer Va.). First, 185 μL of PRP was placed in a glass cuvette for exclusive use, 5 μL of a test compound solution or a solvent (control) for preparing test compound was added thereto, and the mixture was pre-incubated while stirring (1000 ppm) at 37° C. for 5 minutes. Thereafter, 10 μL (final concentration 10 μM) of an ADP solution was added thereto to induce platelet aggregation. Change in transmittance caused by platelet aggregation was recorded for 3 minutes after addition of ADP.
# Transmittances of PRP and PPP were made 0 and 100%, respectively, and the maximum transmittance after adding ADP was made the maximum aggregation ratio. The maximum aggregation ratio when the test compound was added divided by that ratio when the solvent for preparation was added was shown in terms of a percentage, and a 50% inhibiting concentration (IC50) was calculated.
# Incidentally, when the test compound has a protected carboxyl group, the sample was applied to the test after carrying out the following deprotection treatment. First, the test compound was dissolved in ethanol, and hydrolyzed (at room temperature for 2 hours) by adding an equal volume of a 0.1 N aqueous sodium hydroxide solution. Then, the solution was neutralized by adding a 0.1 N aqueous hydrochloric acid solution, and the resulting solution was diluted by using a preparation solvent (composition: ethanol/0.1 N aqueous sodium hydroxide solution/0.1 N aqueous hydrochloric acid solution=1/1/1) to a predetermined concentration to make a test compound solution.
# [2] = system: platelet aggregation induced by ADP and epinephrine; experiment: Ex vivo ADP induced-platelet aggregation inhibiting activity after oral administration to dogs; format: in vivo; details: beagle dogs, ADP 10 μM + epinephrine 1 μM
# Protocol: (§1) Ex Vivo ADP Induced-platelet Aggregation Inhibiting Activity
# As a test animal, 2 to 3 beagle dogs were used as one group.
# (§2) Test compounds were suspended in a dimethylsulfoxide: 0.5% aqueous sodium carboxymethylcellulose solution (=1:99) and orally administered. To the animals for control group, a dimethylsulfoxide: 0.5% aqueous sodium carboxymethylcellulose solution (=1:99) containing no test compound was orally administered.
# (§3) With regard to the respective groups, 5 ml of blood was each collected from cervical vein at the predetermined times before and after administration of the test compound by using a syringe to which 3.8% of sodium citrate was added. The resulting citrate-added blood was centrifuged at 80×g (=700 rpm) for 10 minutes, and then, the supernatant was fractionated as platelet-rich plasma (PRP). The under layer was further centrifuged at 2000×g (3200 rpm) for 10 minutes and the supernatant was fractionated as platelet-poor plasma (PPP) and used for ADP aggregation (coagulation) measurement.
# (§4) PRP was diluted by PPP to adjust the number of platelet to 30 to 40×10^4 /μL, and platelet aggregation induced by ADP was measured by using an aggrigometer (available from NBS Co., Hematracer 801). First, 190 μL of PRP was placed in a glass cuvette for exclusive use and pre-incubated while stirring (1000 ppm) at 37° C. for 5 minutes. Thereafter, 10 μL of an ADP solution (final concentration 10 μM) and an epinephrine solution (final concentration 1 μM) was added thereto to induce platelet aggregation. Change in transmittance caused by platelet aggregation was recorded for 3 minutes after addition of ADP.
# (§5) Transmittances of PRP and PPP were made 0 and 100%, respectively, and the maximum transmittance after adding ADP was made the maximum aggregation ratio.
# (§6) The platelet aggregation inhibiting ratio was shown in terms of a percentage of the maximum aggregation ratio when the test compound was added divided by the maximum aggregation ratio when the solvent for preparation was added.
# platelet aggregation = details: reported in Thrombosys, Res., 56, 6, 687 (1989); cited from earlier work
# fibrinogen receptor = details: reported in Thrombosys, Res., 56, 6, 687 (1989); cited from earlier work
# [3] = system: platelet aggregation induced by ADP; experiment: Ex vivo ADP induced-platelet aggregation inhibiting activity after oral administration to monkeys; format: in vivo; details: cynomolgus monkeys, ADP 20 μM
# From the text: as §1
# As a test animal, 2 to 3 monkeys (cynomolgus monkeys) born in China were used as one group.
# as §2
# as §3, with “femoral” for “cervical”, “platelet rich” for “platelet-rich”
# as §4, with “by using a nephelometric platelet aggregation meter (available from” for “by using an aggrigometer (available from”, “10 μL (final concentration 20 μM) of an” for “10 μL of an”, “ADP solution was added” for “ADP solution (final concentration 10 μM) and an epinephrine solution (final concentration 1 μM) was added”
# as §5, §6
compound,measurement,setting,value
"N=C(N)c1ccc(C(=O)N[C@@H](Cc2ccc([N+](=O)[O-])cc2)C(=O)N2CCc3sc(CC(=O)O)cc3C2)cc1 [Example I-5, 5-[N-(4-amidinobenzoyl)-L-4-nitrophenylalanyl]-4,5,6,7-tetrahydrothieno[3,2-c]pyridin-2-acetic acid.trifluoroacetate]",IC50,"[1]; Homo sapiens, Platelet",30 nM
"CN(C(=O)c1ccc(C(=N)N)cc1)[C@@H](Cc1ccc([N+](=O)[O-])cc1)C(=O)N1CCc2nn(CC(=O)O)cc2C1 [Example I-136, 5-[N-(4-amidinobenzoyl)-N-methyl-L-4-nitrophenylalanyl)-4,5,6,7-tetrahydropyrazolo[4,3-c]pyridin-2-acetic acid.trifluoroacetate]",IC50,"[1]; Homo sapiens, Platelet",60 nM
"C[C@H](NC(=O)c1ccc(C(=N)N)cc1)C(=O)N1CCc2nn(CC(=O)O)cc2C1 [Example I-126, 5-[N-(4-amidinobenzoyl)-L-alanyl]-4,5,6,7-tetrahydropyrazolo[4,3-c]pyridin-2-acetic acid.trifluoroacetate]",IC50,"[1]; Homo sapiens, Platelet",80 nM
"CCOC(=O)Cn1cc2c(n1)CCN(C(=O)[C@H](Cc1ccc([N+](=O)[O-])cc1)NC(=O)c1ccc(C(=N)NO)cc1)C2 [Example I-85, Ethyl 5-[N-[4-(N-hydroxyamidino)benzoyl]-L-4-nitrophenylalanyl]-4,5,6,7-tetrahydropyrazolo[4,3-c]pyridin-2-acetate]",ex vivo Platelet aggregation inhibiting ratio,"[2]; 0.3 mg/kg p.o., 1 hr",61%
same,ex vivo Platelet aggregation inhibiting ratio,"[2]; 0.3 mg/kg p.o., 4 hr",94%
same,ex vivo Platelet aggregation inhibiting ratio,"[2]; 0.3 mg/kg p.o., 8 hr",41%
"N=C(N)c1ccc(C(=O)N[C@@H](Cc2ccc([N+](=O)[O-])cc2)C(=O)N2CCc3nn(CC(=O)O)cc3C2)cc1 [Example I-79, 5-[N-(4-amidinobenzoyl)-L-4-nitrophenylalanyl]-4,5,6,7-tetrahydropyrazolo[4,3-c]pyridin-2-acetic acid.trifluoroacetate]",IC50,"[1]; Homo sapiens, Platelet",20 nM
Arg-Gly-Asp-Ser (RGDS; printed: Arg-Gly-Asp-Ser) [peptide derivative such as Arg-Gly-Asp-Ser (hereinafter abbreviated to as RGDS)],platelet aggregation inhibiting action,platelet aggregation,platelet aggregation inhibiting action
same,antagonistic action against a fibrinogen receptor,fibrinogen receptor,antagonistic action against a fibrinogen receptor
same,IC50,[1],4000 nM
"CCOC(=O)Cn1cc2c(n1)CCN(C(=O)[C@H](Cc1ccc([N+](=O)[O-])cc1)NC(=O)c1ccc(C(=N)N)cc1)C2 [Example I-76, Ethyl 5-[N-(4-amidinobenzoyl)-L-4-nitrophenylalanyl]-4,5,6,7-tetrahydropyrazolo[4,3-c]pyridin-2-acetate.trifluoroacetate]",platelet aggregation inhibiting activities even in oral administration,[3],excellent platelet aggregation inhibiting activities
same,sustained activity,[3],excellent sustained activity
"N=C(N)c1ccc(C(=O)N[C@@H](Cc2ccccc2)C(=O)N2CCc3nn(CC(=O)O)cc3C2)cc1 [Example I-128, 5-[N-(4-amidinobenzoyl)-L-phenylalanyl]-4,5,6,7-tetrahydropyrazolo[4,3-c]pyridin-2-acetic acid.trifluoroacetate]",IC50,"[1]; Homo sapiens, Platelet",50 nM
"CCOC(=O)Cn1cc2c(n1)CCN(C(=O)[C@H](Cc1ccc([N+](=O)[O-])cc1)NC(=O)c1ccc(C(=N)NC(=O)Oc3ccccc3)cc1)C2 [Example I-115, Ethyl 5-[N-[4-(N-phenoxycarbonylamidino)benzoyl]-L-4-nitrophenylalanyl)-4,5,6,7-tetrahydropyrazolo[4,3-c]pyridin-2-acetate]",ex vivo Platelet aggregation inhibiting ratio,"[2]; 0.3 mg/kg p.o., 1 hr",35%
same,ex vivo Platelet aggregation inhibiting ratio,"[2]; 0.3 mg/kg p.o., 4 hr",43%
same,ex vivo Platelet aggregation inhibiting ratio,"[2]; 0.3 mg/kg p.o., 8 hr",22%
"CCOC(=O)Cn1cc2c(n1)CCN(C(=O)[C@H](Cc1ccc([N+](=O)[O-])cc1)NC(=O)c1ccc(C(=N)NC(=O)OCC)cc1)C2 [Example I-77, Ethyl 5-[N-[4-(N-ethoxycarbonylamidino)benzoyl]-L-4-nitrophenylalanyl]-4,5,6,7-tetrahydropyrazolo[4,3-c]pyridin-2-acetate]",ex vivo Platelet aggregation inhibiting ratio,"[2]; 1 mg/kg p.o., 1 hr",60%
same,ex vivo Platelet aggregation inhibiting ratio,"[2]; 1 mg/kg p.o., 4 hr",85%
same,ex vivo Platelet aggregation inhibiting ratio,"[2]; 1 mg/kg p.o., 8 hr",63%
same,platelet aggregation inhibiting activities even in oral administration,[3],excellent platelet aggregation inhibiting activities
same,sustained activity,[3],excellent sustained activity
"N=C(N)c1ccc(C(=O)N[C@@H](Cc2ccc([N+](=O)[O-])cc2)C(=O)N2C3CCC2c2cn(CC(=O)O)nc2C3)cc1 (stereo partly drawn) [Example I-91, 5-[N-(4-amidinobenzoyl)-L-4-nitrophenylalanyl]-4,6-ethano-4,5,6,7-tetrahydropyrazolo[4,3-c]pyridin-2-acetic acid]",IC50,"[1]; Homo sapiens, Platelet",50 nM
"N=C(N)c1ccc(C(=O)N[C@@H](Cc2ccc(OCc3ccccc3)cc2)C(=O)N2CCc3nn(CC(=O)O)cc3C2)cc1 [Example I-138, 5-[N-(4-amidinobenzoyl)-L-O-benzyltyrosyl)-4,5,6,7-tetrahydropyrazolo[4,3-c]pyridin-2-acetic acid.trifluoroacetate]",IC50,"[1]; Homo sapiens, Platelet",60 nM

# — US6265418A, “N-acylamino acid amide compounds and intermediates for preparation thereof” (Ube Industries, Ltd., priority 1997, dated 2001)
